Test results: EP0486921A1, “N-acetyl-L-cysteine magnesium salt and pharmaceutical compositions containing it” (ZAMBON GROUP S.p.A., priority 1990, dated 1992)
Counter-ions that a name gives are not always drawn.

Assays:
anesthetized guinea pigs = conditions: guinea pig, in vivo
Protocol: The experiments were carried out according to the Konzett and Rössler technique [Arch. Exp. Patol. Pharmakol., 195, 71, (1940)] in anesthetized guinea pigs, where the potential increase in total airway resistance induced by the tested compounds was registered as a change in air overflow.
Male guinea pigs (500-600 g body weight) were anesthetized with ethylurethane (1.25 g/kg/i.p.) and the anesthesia was maintained by additional doses of ethylurethane given by intravenous route.
A catheter was inserted into the jugular vein for the administration of histamine.
The guinea pigs were subjected to forced ventilation at constant volume and at 72 breaths/minute.
Basal overflow value was set up to 8 cm H20.
Equimolecular doses of N-acetyl-L-cysteine in the form of free acid, lysine salt, calcium salt and magnesium salt [(NAC)2Mg] were administered as a micronized powder in trachea by forced insufflation.
The bronchoconstrictive effect was evaluated as the equivalent dose of histamine causing the same change in air overflow.
In control experiments the effect of forced insufflation of lactose was evaluated.

predisposed subjects = conditions: the patent says tested doses were much lower than therapeutically useful doses; cited from earlier work
pH of aqueous solution = format: physicochemical; conditions: 1 % aqueous solution
Description: pH (1 % aqueous solution) = 5.35

Solubility in water = format: physicochemical
Description: solubility in water: about 50%

SMILES | Histamine dose X-±S.E. (dose of hystamine causing a bronchospasm equivalent to the change in air overflow) (anesthetized guinea pigs) | bronchoconstrictive effect compared with N-acetyl-L-cysteine (anesthetized guinea pigs) | induction of bronchospasm (predisposed subjects) | pH (pH of aqueous solution) | solubility (Solubility in water) [mg/mL]
CC(=O)N[C@@H](CS)C(=O)O [NAC, N-acetyl-L-cysteine] | 5.81±0.93 µg/kg/i.v. |  |  |  | 
CC(=O)N[C@@H](CS)C(=O)O [NAC calcium salt] | 7.03±1.48 µg/kg/i.v. | not significantly different |  |  | 
CC(=O)N[C@@H](CS)C(=O)O [NAC lysine salt] | 4.53±0.40 µg/kg/i.v. |  | does not induce bronchospasm |  | 
CC(=O)N[C@@H](CS)C(=O)O [(NAC)2Mg, N-acetyl-L-cysteine magnesium salt] | 3.96±0.28 ^(**) µg/kg/i.v. | significantly lower |  | 5.35 | ~500
